Test results as given in patent publication US8663914B2, “System and method for controlling bacterial cells with weak electric currents” (Syracuse University, priority 2009, dated 2014).
Values after ≈ are worked out from the molar mass of the structure shown. Read-outs that look alike come from different tables or passages of the source.

What was measured:
[1] = tested on: P. aeruginosa PAO1 persister cells; assay: Killing of P. aeruginosa PAO1 persister cells by tobramycin with electric current or pretreated buffer (CFU count); type: cell-based
Experimental: Thus, the 1% cells that survived the treatment were persister cells and treatment with 200 μg/mL Cip was used in the following experiments to harvest persister cells and ensure the complete killing of normal cells.
However, treatment with 75 μA/cm^2 (500 μA total) current reduced the number of viable persisters by ˜2.5 logs and another 2 logs of killing was obtained when treating with Tob together, as shown in FIG. 12. […] This is a significant advantage compared to traditional antibiotics, which commonly fail to kill bacterial cells that are in stationary phase or are persisters.
To understand if the killing by electric currents was due to the ions generated by electrochemical reactions, P. aeruginosa PAO1 persister cells were also treated with pretreated buffer, which was prepared by treating 0.85% NaCl buffer with SS304 stainless steel electrodes for the same current level and duration as used for the above experiments. The pretreated buffers were collected after 20, 40 or 60 min of treatment. P. aeruginosa PAO1 persister cells were collected as described above and resuspended in the pretreated buffers in the presence and absence of Tob. The cells were then incubated at room temperature without shaking for up to 1 h and samples were collected every 20 min to count CFU. […] The generation of ROS as described in E. coli HM22 data could be partially responsible for the killing. In addition, no synergy was observed between pretreated buffer and 1.5 μg/mL Tob.

P. aeruginosa PAO1 cells = assay: Killing of P. aeruginosa PAO1 cells at exponential phase by tobramycin and/or electric current (CFU count); type: cell-based
Experimental: Continued experiments, for example, have already shown that the effects of electric current and synergy with antibiotics is not species specific, as similar results were shown using P. aeruginosa. The experiments were conducted in the same way as described for E. coli HM22. Briefly, an overnight culture of P. aeruginosa PAO1 was used to inoculate LB medium to an OD600 of ˜0.005 (1:1000 dilution of an overnight culture with LB) and incubated till OD600 reached ˜0.7. Then the cells were washed twice with 0.85% NaCl buffer and treated in the same way as described for planktonic E. coli cells. […] Treatment with 75 μA/cm^2 for 60 min reduced the number of viable P. aeruginosa PAO1 cells by 3 logs.

[2] = tested on: E. coli HM22 persister cells; type: cell-based; details: 0.85% NaCl buffer
Experimental: To evaluate the effects of electric currents, the persister cells were first isolated as described previously. Briefly, the exponential culture of HM22 at optical density at 600 nm (OD600) of 0.3 in LB medium was treated with 100 μg/mL ampicillin for 3 h to kill and lyse the normal cells. The persister cells were then collected by centrifugation at 8000 rpm at 4° C. for 10 min and resuspended in 0.85% NaCl buffer. Electrodes with a dimension of 1 cm×5.6 cm were cut from a flat 304L stainless steel sheet (MSC; Melville, N.Y.) or graphite sheet (McMaster-CARR, Santa Fe Springs, Calif.). The same material was used for both the counter electrode and working electrode, which were placed into a 4.5 mL standard-style polystyrene cuvette (Fisher Scientific; Hampton, N.H.). A 0.48 mm diameter silver wire (A-M Systems; Sequim, Wash.) was placed in bleach for 30 min to produce an Ag/AgCl reference electrode. The bottom 1″ of a borosilicate glass Pasteur pipette (Fisher) was cut and the reference wire was placed inside to prevent contact with the working or counter electrode. An AFCBP1 potentiostat/galvanostat (Pine Instrument Company, Grove City, Pa.) was connected via alligator clamps to the electrodes and used to control the current. The volume of medium in the fully-constructed electrochemical cell was 3 mL (see FIG. 2).

E. coli HM22 biofilms = assay: Killing of E. coli HM22 biofilm cells on 304L stainless steel coupons by tobramycin and/or direct current (CFU count); type: cell-based
Experimental: To determine if electric currents are also effective in killing persister cells in biofilms, E. coli HM22 biofilms were cultured on 304L stainless steel coupons. The biofilm-coated coupons were then used as anodic or cathodic electrode, and treated with direct current alone or with tobramycin together. Immediately after treatment, the cells were removed from the biofilm-coated coupons by sonication and vertexing. A portion of the cells was directly plated on LB+DPA plates to quantify the total number of viable cells by counting CFU, the other part of the sample was treated with 100 μg/mL ampicillin for another 3 h and plated on LB+DPA plates to quantify the number of the viable persister cells. This approach allowed us to study the killing effects on normal and persister cells separately.
However, treatments with 75 μA/cm^2 alone for 60 min reduced the number of viable persister cells by 3.5 logs. After treating biofilms with currents and tobramycin together for 60 min, the number of viable persister cells was reduced by 5.4 log (nearly complete killing, FIG. 4). Thus, synergy between electric currents and antibiotics also exist for killing persister cells in biofilms.

[3] = tested on: E. coli HM22 persister cells; assay: ROS accumulation (H2DCFDA fluorescence) and CFU count of E. coli HM22 persister cells treated with current and/or H2O2; type: cell-based
Experimental: Thus, the treatment could render the persister cells more susceptible to external ROS. To test this hypothesis, we treated E. coli HM22 persister cells with 100 μA for 20 min and followed by treatment with and without H2O2 (500 μM) for 1 h. These cells were then split into two parts: one for microscopic analysis and the other for CFU count. For microscopic study, cells were treated with 200 μM dichlorodihydrofluorescein diacetate (H2DCFDA, Sigma-Aldrich, St. Louis, Mo.) for 30 min in dark at room temperature. After incubation, cells were spin down and resuspended in PBS buffer for visualization using a fluorescence microscope (Axio Imager M1, ZEISS, Jena, Germany). The dye H2DCFDA can penetrate bacterial cells and get cleaved by cellular esterase to produce H2DCF. If there is any ROS present, this H2DCF will be converted to DCF and give fluorescence (Invitrogen, USA). […] For the CFU count, cells were plated on LB plates supplemented with DPA and incubated overnight at 37° C.

[4] = tested on: B. subtilis BE1500 biofilms; assay: Treatment of B. subtilis BE1500 biofilms with ampicillin and/or DC (CFU count); type: cell-based
Experimental: MIC is not a useful measurement of the response of biofilms to antibiotics because antibiotics added in the growth medium before inoculation could kill planktonic cells before they can form a biofilm. Therefore it is important to characterize the minimum bactericidal concentration (MBC) of ampicillin on established biofilms. B. subtilis BE1500 was cultured overnight as described above. Flat stainless steel electrodes were placed in a 100 mm petri dish with 20 mL LB medium, which was inoculated with 20 μL of an overnight culture. Biofilms were allowed to develop for 48 hours at 37° C. without shaking. The electrodes with biofilms were gently washed three times in 0.85% NaCl buffer and immersed in LB medium containing various concentrations of ampicillin for 15 min. Immediately after treatment, the electrodes with biofilms were placed in a 15 mL polystyrene test tube (Fisher Scientific) containing 4 mL 0.85% NaCl buffer and sonicated for 2 min to remove the biofilm cells from the surface. The stainless steel electrode was then removed and the tube was vortexed for 30 s to break up any remaining cell clusters. CFUs were counted after spreading the buffer with cells on LB agar plates and incubated overnight at 37° C.
Treatment of Biofilm Cultures with Ampicillin and DC. B. subtilis BE1500 biofilms were prepared as described for MBC experiments. Prior to treatment, biofilms were gently washed three times with 0.85% NaCl buffer. Each stainless steel coupon with biofilm was placed as the working electrode in the electrochemical cell cuvette shown in FIG. 16. Prior to placing the electrode with biofilm in the cuvette, 3 mL LB medium was added to the cuvette to prevent the biofilm from drying out. Samples were treated for 15 min with 0, 25, 83 and 250 μA/cm^2. Immediately after treatment, the biofilms were placed in a 15 mL polystyrene test tube containing 4 mL 0.85% NaCl buffer and sonicated for 2 min to remove the biofilm from electrode. The stainless steel electrode was then removed and the tube containing the cells and buffer was vortexed for 30 s to break up any remaining cell clusters. Cell densities were determined by plating the cultures on LB/agar plates and counting CFUs. The effect of current-generated ions was tested in the same way except that the cells were incubated in pre-treated LB in the absence of a current.

B. subtilis 168 = details: reported in the literature; cited from earlier work
[5] = tested on: planktonic B. subtilis BE1500; assay: Minimum inhibitory concentration of ampicillin on planktonic cells (OD600, 96-well plate); type: cell-based; details: Bacillus subtilis; LB medium, 24 hours, 37° C.
Experimental: Determination of Minimum Inhibitory Concentration and Minimum Bactericidal Concentrations. To determine the minimum inhibitory concentrations (MICs) of ampicillin on planktonic cells, B. subtilis 168 and B. subtilis BE1500 were cultured in LB medium overnight as described above. The overnight cultures were subcultured by a 1:1000 dilution in LB medium containing various concentrations of ampicillin with seven replicates in a 96-well plate and allowed to grow at 37° C. with shaking at 200 rpm for 24 hours. The OD600 was measured immediately after inoculations and at 24 hours after inoculation with a microplate reader (Model EL808, BioTek Instruments, Winooski, Vt.).

P. aeruginosa PAO1 = details: ciprofloxacin up to 200 μg/mL, 3.5 h, overnight culture
[6] = tobramycin alone, 20 μg/mL or 150 μg/mL, compared to untreated control

For `NC[C@H]1O[C@H](O[C@H]2[C@H](O)[C@@H](O[C@H]3O[C@H](CO)[C@@H](O)[C@H](N)[C@H]3O)[C@H](N)C[C@@H]2N)[C@H](N)C[C@@H]1O` [tobramycin], the “killing of persister cells” value ([1]; 1.5 μg/mL Tob alone) was “not able to kill”, the “synergy between pretreated buffer and Tob” value ([1]; 1.5 μg/mL Tob in 0.85% NaCl buffer pretreated with SS304 electrodes, no current, up to 1 h) was “no synergy” and the “additional killing of persister cells beyond current alone” value ([1]; 1.5 μg/mL Tob together with 75 μA/cm^2 (500 μA total) current) was 2 logs. For the same compound, the “killing of viable cells” value (P. aeruginosa PAO1 cells; 1.5 μg/mL Tob alone, 0.85% NaCl buffer) was “did not cause any significant killing”, the “killing of viable cells” value (P. aeruginosa PAO1 cells; 1.5 μg/mL Tob combined with 75 μA/cm^2 for 60 min) was “up to 5 logs” and the “synergy with electric current in killing persister cells” value ([2]; tobramycin with 75 μA/cm^2 DC, graphite electrodes) was “synergistic effect”. For the same compound, the “reduction of number of viable persister cells in biofilm” value (E. coli HM22 biofilms; currents (75 μA/cm^2 DC) and tobramycin (20 μg/mL) together for 60 min) was 5.4 log, the “reduction in number of viable persister cells in biofilm” value (E. coli HM22 biofilms; [6]) was “no significant reduction” and the “reduction in total number of viable cells in biofilm” value (E. coli HM22 biofilms; [6]) was “no significant reduction”.

In the case of `OO` [H2O2], the “accumulation of ROS in persister cells” value ([3]; H2O2 500 μM, 1 h, H2DCFDA fluorescence) is reported as “caused accumulation of ROS” and the “killing of persister cells (CFU)” value ([3]; electric current (100 μA, 20 min) followed by H2O2 500 μM for 1 h, versus either alone) is reported as “killed more persister cells than either the EC or H2O2 alone”.

For `CC1(C)S[C@@H]2[C@H](NC(=O)[C@H](N)c3ccccc3)C(=O)N2[C@H]1C(=O)O` [ampicillin], the “change in killing on adding ampicillin to current” value ([4]; 50 μg/mL ampicillin and 500 μA current, graphite electrodes, chlorine-free M56 buffer, versus current alone) was “slight decrease in killing”, the biofilm cells killed ([4]; 1000 μg/mL ampicillin alone for 15 min) was 59% and the “synergy of DC and ampicillin on biofilms” value ([4]; 83 μA/cm^2 DC and ampicillin together, stainless steel electrodes) was “no apparent synergy”. For the same compound, the inhibition at 50 µg/mL ([4]; Bacillus subtilis, BE1500BIOFILMS, 0.25 h, 50 μg/mL ampicillin with 500 μA DC current, 15 min, graphite electrodes, read-out: decrease in cell viability) was 44%, the inhibition at 100 µg/mL ([4]; Bacillus subtilis, BE1500BIOFILMS, 0.25 h, 100 μg/mL ampicillin with 83 μA/cm^2 DC, 15 min, 37° C., stainless steel electrodes, versus antibiotic alone, read-out: decrease in cell viability) was 79% and the inhibition at 1000 µg/mL ([4]; Bacillus subtilis, BE1500BIOFILMS, 0.25 h, 1000 μg/mL ampicillin with 83 μA/cm^2 DC, 15 min, 37° C., stainless steel electrodes, versus antibiotic alone, read-out: decrease in cell viability) was 86%. For the same compound, the inhibition at 50 µg/mL ([4]; Bacillus subtilis, BE1500BIOFILMS, 0.25 h, read-out: decrease in cell viability, 50 μg/mL ampicillin with 83 μA/cm^2 (500 μA) DC, 15 min, 37° C., stainless steel electrodes, LB, versus antibiotic alone) was 93%, the viability at 50 µg/mL ([4]; Bacillus subtilis, BE1500BIOFILMS, 50 μg/mL ampicillin with 500 μA DC current, graphite electrodes, chlorine-free M56 buffer, read-out: viability of biofilm cells (untreated control normalized as 100%)) was 74% and the MIC (B. subtilis 168) was 0.2 µg/mL (≈ 0.572 µM). The MIC [5] was ≤ 2 µg/mL.

With `O=C(O)c1cn(C2CC2)c2cc(N3CCNCC3)c(F)cc2c1=O` [ciprofloxacin] the “cells that survived the treatment” value (P. aeruginosa PAO1) was 1%.

For `CCn1nc(C(=O)O)c(=O)c2cc3c(cc21)OCO3` [cinoxacin], the “reduction in the number of viable persister cells” value ([2]; 20 μg/mL cinoxacin alone, graphite electrodes cell, 60 min) was “no apparent reduction” and the “reduction in the number of viable persister cells” value ([2]; 20 μg/mL cinoxacin together with 75 μA/cm^2 current, graphite electrodes) was “more than 5 log”.
